Entries after “also recorded” stand apart in the source; their conditions may differ.
Columns and labels:
Human alpha thrombin = Human alpha thrombin (Homo sapiens, UniProt P00734); test: Fluorogenic activity assay (fluorescent peptidyl substrate cleavage), thrombin; details: for thrombin inhibition, result in words / antidote reversal of thrombin inhibition, result in words: fluorogenic substrate assay; for maximum inhibition of thrombin activity: thrombin 0.5 nM, fluorogenic substrate; for antidote reversal of thrombin inhibition, result in words: antidote oligonucleotide
Experimental: Initial velocity studies of fluorescent peptidyl substrate cleavage by thrombin were used to assess protease inhibition by the EXACT inhibitor (FIG. 1c).
(§2) Fluorogenic activity assay: All reagents were freshly reconstituted in the reaction buffer (20 mM HEPES, 150 mM NaCl, and 2 mM CaCl2), 0.02%, Tween 20, pH 7.5) before the assay. 10 μL of thrombin or factor Xa (final concentration 0.5 nM) were first incubated with 5 μL of inhibitor, inhibitor/antidote mixture, or buffer control on a 384-well opaque plate for 5 min at 28° C. 10 μL of fluorogenic substrate (final concentration 50 μM) was then added to the mixture and the time-course fluorescence (λex=352 nm, λem=470 nm) of the sample were recorded every minute for 15 min at 28° C. using a SpectraMax i3 microplate reader (Molecular Devices). The catalytic rate of the protease was quantified by the slope from linear regression of the time-dependent fluorescence intensity and normalized with the sample containing no inhibitor as 100%. Each experiment was performed in triplicates.

human factor Xa = molecular target: T1, human factor Xa (Homo sapiens, UniProt P00742); test: Fluorogenic activity assay (fluorescent peptidyl substrate cleavage), factor Xa; format: biochemical; details: for IC50: factor Xa 0.5 nM, fluorogenic substrate 50 μM; for factor Xa inhibition, result in words: fluorogenic substrate assay; for antidote reversal of factor Xa inhibition by 11F7t-20A-DAB, result in words: antidote oligonucleotide
T1 construct: Human alpha thrombin, human factor Xa, and human fibrinogen were purchased from Haematologic Technologies Inc; purchased Haematologic Technologies Inc
Experimental: as §2

[1] = molecular target: T2, thrombin (FVIII activation) (Homo sapiens, UniProt P00734); test: Thrombin cleavage of FVIII (SDS-PAGE); format: biochemical; details: 100 nM inhibitor, 1 nM thrombin, 100 nM FVIII
T2 construct: Human alpha thrombin, human factor Xa, and human fibrinogen were purchased from Haematologic Technologies Inc; purchased Haematologic Technologies Inc
Experimental: Thrombin (final concentration 1 nM) was incubated in the absence or presence of thrombin inhibitors (final concentration 100 nM) at 37° C. for 5 min following by addition of recombinant human FVIII (final concentration 100 nM). Sample were collected at 1, 2, 5, 10, 20, 30, 40, and 60 min of reaction and quenched in SDS loading buffer and heating at 95° C. for 5 min. The digestion products at different time points are then characterized on a 4-20% PAGE gel. Thrombin's activity on activating FVIII in the absence and presence of thrombin inhibitors were quantified using the time-course concentration of intact light chain under thrombin digestion determined by band intensity. The assay was performed in duplicates.

normal human plasma [2] = test: Activated partial thromboplastin time (aPTT) plasma coagulation assay; details: for effect on aPTT, result in words: normal human plasma, comparison with DAB at 500 nM
Experimental: (§1) Plasma coagulation assays: Thrombin time (TT), prothrombin time (PT), and activated partial thromboplastin time (aPTT) assays were performed in citrated normal human plasma on a hemostasis coagulation analyzer (Diagnostica Stago). For TT, 5 μL of inhibitors in the reaction buffer were mixed with 100 μL of plasma and incubated at 37° C. for 5 min. 50 μL of thrombin (6 NIH units/ml) in the reaction buffer was then added to initiate clotting. For PT, 5 μl of inhibitors in the reaction buffer were mixed with 50 μL of plasma and incubated at 37° C. for 5 min. 100 μL of TriniCLOT PT Excel S reagent was then added to initiate clotting. For aPTT, 5 μL of inhibitors in the reaction buffer were mixed with 50 μL of plasma and incubated at 37° C. for 5 min, 50 μL of TriniCLOT aPTT S reagents was then added followed by another 5 min incubation at 37° C. Finally, 50 μL of 20 mM CaCl2) was added to initiate clotting. To characterize antidote reversal of HD22-7A-DAB in the above assays, 5 μL AO2 (finial concentration 2 μM) in the reaction buffer was added after 5-min incubation between plasma and HD22-7A-DAB, followed by another 5 min of incubation before the next step. All assays are performed induplicates.

normal human plasma [3] = test: Thrombin time (TT) plasma coagulation assay; details: for effect on TT, result in words: normal human plasma
Experimental: as §1

thrombin [4] = molecular target: T3, thrombin (Homo sapiens, UniProt P00734); test: Bio-layer interferometry; format: binding; set-up: Human alpha thrombin, human factor Xa, and human fibrinogen were purchased from Haematologic Technologies Inc; purchased Haematologic Technologies Inc
Experimental: Bio-layer interferometry: Bio-layer inferometry was performed using Octet R8 BLI System (Sartorius). Briefly, 3.3 nM of biotinylated HD22-7A-DAB, HD22-7A-NH2, HD23-7A-DAB, and HD23-7A-NH2 were immobilized to Octet streptavidin biosensors (Sartorius). […] A 30-min dissociation was performed in buffer containing 200 nM HD22-7A-DAB. The existence of free HD22-7A-DAB in dissociation buffer prevents re-binding of thrombin and provides more accurate koff measurements.

[5] = molecular target: T4, thrombin (cleavage of fibrinogen) (Homo sapiens, UniProt P00734); test: Fibrinogen turbidity assay; format: biochemical; details: for inhibition of thrombin-mediated fibrin clot formation, result in words: 50 nM inhibitor, 2.5 nM thrombin, 0.8 mg/mL fibrinogen, absorbance 550 nm
T4 construct: Human alpha thrombin, human factor Xa, and human fibrinogen were purchased from Haematologic Technologies Inc; purchased Haematologic Technologies Inc
Experimental: To test the kinetics of antidote reversal, 1 μL AO2 (final concentration 2 μM) was added to the reaction 10 min after fibrinogen addition. The maximum absorption over the period of assay in the absence and presence of different inhibitors were determined. The time to reach 10%, 50%, and 90% maximum absorption increase from the start point were calculated and recorded as lag time, t50, and t90, respectively, for each inhibitor to evaluate the kinetic of fibrinogen activation. Each experiment was performed in triplicates to determine the mean and standard deviation of each parameter.

whole human blood = test: Active clotting time (ACT)
Experimental: Active clotting time (ACT): Citrated blood (72 μL) freshly collected from heathy donors were incubated with 6 μL inhibitors reconstituted in the reaction buffer at room temperature for 3 min following addition of 2.1 μL CaCl2) (245 mM). The blood mixture was then immediately analyzed on an ACT+ cuvette (Accriva Diagnostics) using a Hemochron Jr Signature (Instrumentation Laboratory). The assay was performed with a N value of five. One-way ANOVA test was used to compare between two sets of data.

normal human plasma [6] = test: Prothrombin time (PT) plasma coagulation assay; details: for effect on PT, result in words: normal human plasma, comparison with DAB at 500 nM
Experimental: as §1

[7] = Plasma stability (nuclease degradation, denaturing PAGE); format: in vitro ADME; details: 500 nM conjugate in human plasma (10 U/mL heparin), 37° C.
Experimental: FIG. 16. End modification of aptamer for higher plasma stability. (a) 3′ modification of HD22-DAB conjugate with invdT or cholesterol modification retain high inhibition potency to thrombin in fluorogenic substrate assay. (b) End modification of HD22-7A-DAB with 3′ invdT or cholesterol prolong […] in plasma. Plasma was prepared from whole blood collected from healthy volunteers that was supplemented with 10 U/mL of heparin to prevent coagulation. 500 nM of aptamer-drug conjugate were incubated with 200 μL of the plasma at 37° C. 20 μL of plasma reaction was collected at different time point (0, 10, 30, 60, 120, 360 min) and immediately vortexed with 100 μL phosphate buffer saline, 100 μL chloroform, and 200 μL methanol to quench nucleases. A mixture of 100 μL water and 100 μL chloroform was further added to extract the nucleic acids. The mixture was vortexed and centrifuged 500 rcf×20 min, and the aqueous phase containing nucleic acids was collected, lyophilized, reconstituted in water, and analyzed on a 15% polyacrylamide gel containing 7M urea.

thrombin [8] = molecular target: T3, thrombin; details: cited from earlier work
factor Xa = details: cited from earlier work
[9] = 2 μM AO2 added at 10 min to thrombin-fibrinogen-HD22-7A-DAB (50 nM)

T1 sequence (P00742 235-488 limits assumed): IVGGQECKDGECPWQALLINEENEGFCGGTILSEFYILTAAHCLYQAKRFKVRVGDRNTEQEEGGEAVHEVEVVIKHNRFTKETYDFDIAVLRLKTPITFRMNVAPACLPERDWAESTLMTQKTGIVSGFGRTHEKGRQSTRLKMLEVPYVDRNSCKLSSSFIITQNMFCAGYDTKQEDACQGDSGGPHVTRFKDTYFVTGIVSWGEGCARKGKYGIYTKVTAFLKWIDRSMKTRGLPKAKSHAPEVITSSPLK
T1 sequence (P00742 41-179 limits assumed): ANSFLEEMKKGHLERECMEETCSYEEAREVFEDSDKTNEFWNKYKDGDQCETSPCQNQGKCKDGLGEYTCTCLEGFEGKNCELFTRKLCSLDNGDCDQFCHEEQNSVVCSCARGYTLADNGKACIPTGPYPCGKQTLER

11F7t-20A-DAB (GAGAGCCCCAGCGAGAUAAUACUUGGCCCCGCUCUUU; 5' DAB-C6H12-2'OMeA linker conjugate; modified_base 37 OTHER; Inverted dT)
thrombin inhibition, result in words (Human alpha thrombin): no different from DAB alone
IC50 (human factor Xa): 0.18 nM
factor Xa inhibition, result in words (human factor Xa): significantly higher inhibitory effect of thrombin than DAB, 11F7t, or their equimolar mixture
enhancement in the IC50 for factor Xa when DAB is conjugated to 11F7t (human factor Xa; versus free DAB): > 2500 fold

HD22-7A-DAB
thrombin inhibition at a concentration of 1 nM (Human alpha thrombin; 1 nM inhibitor): completely inhibits thrombin activity
thrombin inhibition, result in words (Human alpha thrombin): significantly higher inhibitory effect of thrombin than DAB, HD22, or their equimolar mixture
potency higher than DAB (Human alpha thrombin; ratio of IC50 against thrombin): 500 fold
maximum inhibition of thrombin activity (Human alpha thrombin): > 99%
inhibition of thrombin-mediated FVIII cleavage, result in words [1]: no proteolysis was observed for over one hour
effect on aPTT, result in words (normal human plasma [2]): significantly longer than the same concentration of DAB; also recorded: weaker anticoagulant than UFH
TT clotting time (normal human plasma [3]; 31 nM): > 999 s
effect on TT at inhibitor concentration lower than the added thrombin (normal human plasma [3]; below 13.4 nM): limited effect on TT
TT clotting time (measurable range of analyzer) (normal human plasma [3]; concentration exceeds 16 nM): > 999 s
effect on TT, result in words (normal human plasma [3]): rivals UFH
koff for thrombin binding (thrombin [4]; dissociation in buffer with 200 nM HD22-7A-DAB): 0.0021 s⁻¹
kon for thrombin binding (thrombin [4]; immobilized biotinylated inhibitor): 3.9e+07 M⁻¹ s⁻¹
inhibition of thrombin-mediated fibrin clot formation, result in words [5]: completely inhibited
ACT compared with 5 U/mL UFH (whole human blood; 1 μM): comparable to
ACT compared with 5 U/mL UFH (whole human blood; 2 μM): significantly higher than
ACT (measurable range of analyzer) (whole human blood; 2 μM, whole blood): > 999 s
ACT (whole human blood; 1-μM concentration, whole human blood): 624 s
effect on ACT, result in words (whole human blood; whole human blood): dose dependently prolonged ACT; also recorded: significantly higher than the ACTs that followed the addition of DAB, HD22, or their equimolar mixture
effect on PT, result in words (normal human plasma [6]): significantly longer than the same concentration of DAB; also recorded: rivals UFH
half-life in plasma [7]: around 1 hour

AO5.4: antidote for 11F7t-20A-DAB pairing with entire linker and part of aptamer, SEQ ID NO: 11 (TATTATCTCGCTGGGGCTCTCTTTTTTTTTTTTTTTTTTTT; antidote oligonucleotide, chemistry not given here, further chemistry not given here)
antidote reversal of factor Xa inhibition by 11F7t-20A-DAB, result in words (human factor Xa; listed as A05.4): efficiently reversed
antidote reversal of factor Xa inhibition by 11F7t-20A-DAB, result in words (human factor Xa; listed as AG5.4): effectively reverses the inhibition

hirudin
Ki (thrombin [8]; read-out: inhibition constant (Ki), thrombin): 0.01 nM

11F7t-20A-APX (GAGAGCCCCAGCGAGAUAAUACUUGGCCCCGCUCUUU; 5' APX-C6H12-2'OMeA linker conjugate; modified_base 37 OTHER; Inverted dT)
effect on aPTT, result in words (normal human plasma [2]): significantly higher anticoagulant activity than free aptamer, small molecule inhibitor, and their equimolar mixture
IC50 (human factor Xa): 0.17 nM

TAP: Tick anticoagulant peptide secreted by Ornithodoros moubata, factor Xa inhibitor (YNRLCIKPRDWIDECDSNEGGERAYFRNGKGGCDSFWICPEDHTGADYYSSYRDCFNACI; UniProt P17726 1-60, looked up)
Ki (factor Xa; read-out: Ki, free FXa): 0.18 nM

AO2: antidote oligonucleotide complementary to entire HD22 aptamer and linker, SEQ ID NO: 4 (AGTCACCCCAACCTGCCCTACCACGGACTTTTTTTT; antidote oligonucleotide complementary to aptamer and linker, chemistry not given here, further chemistry not given here)
reduction of the potency of HD22-7A-DAB by antidote (Human alpha thrombin; antidote oligonucleotide added to HD22-7A-DAB, FIG. 1c): more than 10,000 fold
antidote reversal of thrombin inhibition, result in words (Human alpha thrombin): efficiently reversed; also recorded: reduces the potency of the EXACT conjugate to an extent that is significantly lower than free DAB
antidote reversal of HD22-7A-DAB in aPTT (normal human plasma [2]; 2 μM AO2): efficiently reversed
antidote reversal of HD22-7A-DAB in TT (normal human plasma [3]; 2 μM AO2): largely reversed within 5 minutes
lag time after antidote addition [5, 9]: 9.8 min
time over which absorbance increased and saturated after antidote [5, 9]: 20.7 min
antidote reversal of HD22-7A-DAB in PT (normal human plasma [6]; 2 μM AO2): efficiently reversed

11F7t: factor Xa RNA aptamer, SEQ ID NO: 9 (GAGAGCCCCAGCGAGAUAAUACUUGGCCCCGCUCUUU; modified_base 37 OTHER; Inverted dT) [reference compound]
factor Xa inhibition, result in words (human factor Xa): showed no inhibition
Kd (factor Xa; free aptamer): 1.26 nM

COc1ccc(-n2nc(C(=O)O)c3c2C(=O)N(c2ccc(N4CCCCC4=O)cc2)CC3)cc1 [APX, apixaban-COOH, reference compound]
IC50 (human factor Xa): 5.5 nM

HD1-12A-DAB (GGTTGGTGTGGTTGG; 3' DAB conjugate via C6H12O2 linker, further chemistry not given here)
thrombin inhibition, result in words (Human alpha thrombin): significantly higher inhibitory effect to thrombin compared with DAB, HD1, or their equimolar mixture
antidote reversal of thrombin inhibition, result in words (Human alpha thrombin): efficiently reversed by specific antidotes; also recorded: efficiently reversed by an antisense oligo

HD22: thrombin exosite II-binding DNA aptamer, SEQ ID NO: 1 [reference compound]
maximum inhibition of thrombin activity (Human alpha thrombin): 30%
inhibition of thrombin-mediated FVIII cleavage, result in words [1]: showed an inhibitory effect
effect on aPTT, result in words (normal human plasma [2]): no anticoagulant effect
Kd (thrombin [8]; read-out: KD, thrombin anion binding exosite 2): 0.5 nM
effect on TT, result in words (normal human plasma [3]): minimally affected TT
inhibition of thrombin-mediated fibrin clot formation, result in words [5]: did not inhibit this thrombin activity
effect on PT, result in words (normal human plasma [6]): no anticoagulant effect

Source: US20260176636A1, “APTAMER-DIRECT INHIBITOR CONJUGATES AND METHODS OF USING THE SAME” (Duke University, priority 2022, published 2026)
